Measurements reported in patent publication US20090035220A1, “HIGH THROUGHPUT SCREENING SYSTEM AND METHOD” (priority 2007, published 2009).

Test system: zebrafish larvae
Test: Ammonia excretion as an indicator of locomotor response to electrical stimulus
Type: in vivo, Danio rerio
Conditions: MS-222 0.10 mg/mL in media; 30 larvae (4 dpf) per well; stimuli 3 uA, 50 msec, 30 times per hour for 12 hours; colorimetric ammonia assay; FIG. 7
Experimental: To create the graphs in the subsequent Examples, the initial conditions consisted of harvesting fertilized zebrafish eggs and placing them into embryo media and housed in an incubator with a constant temperature of 28.5° C. for the first several days of development, and throughout the course of experimentation. Embryo media consists of ultrapure water with 5 mM NaCl, 0.17 mM KCl, 0.33 mM CaCl2, 0.3 mm MgSO4 added. Embryo media was be used to make all final dilutions of test agents.
After the first 24 hours of incubation, the zebrafish larvae were treated with pronase solution (2 mg/ml in Embryo Medium) for several minutes to remove the larvae from their chorion. […] The 96-well plates were maintained in incubators at 28.5° C. and were removed from incubators only for testing or to refresh media.
Excretion of ammonia is a necessary consequence of protein breakdown. When proteins are converted to carbohydrates to provide energy, the amino group is removed and must be dealt with. In animals, the amino group is quickly oxidized to form ammonia. […] The concentration of ammonia excreted by the larvae was quantified by taking a sample of the media following the Examples and assaying it with a commercially available colorimetric assay kit (Ammonia Assay Kit #A1000, Sigma Biochemical) […]

CCOC(=O)c1cccc(N)c1.CS(=O)(=O)O [MS-222]
locomotor response of zebrafish to an electrical stimulus, based on excretion of ammonia: decreases the locomotor response
